Results on one molecule are retold here after BindingDB's records for doi:10.1016/j.bmcl.2008.03.029 (Gifu University, 2008).

A short description of the assay: Inhibition of human recombinant SAHH at 1000 uM.

Consider `Nc1ncnc2c1ncn2[C@@H]1CC[C@@H](O)[C@H]1O` [(1R,2S,3R)-3-(6-amino-9H-purin-9-yl)cyclopentane-1,2-diol], for which the IC50 worked out at 18 µM.

Broadly, the IC50 is the concentration needed to halve the response being measured.
